What was measured:
[1] = test system: oligo-2: d(CGATGTACATCG)2; experiment: Fluorescence titration; assay type: binding; conditions: 20 °C, pH 7.2
[2] = Behaviour of HCl salt in cell culture media; assay type: physicochemical
[3] = test system: oligo-1: d(CGCGAATTCGCG)2; experiment: Fluorescence titration; assay type: binding; conditions: 20 °C, pH 7.2

SMILES | Ka binding affinity with oligo-2 [1] | behaviour of HCl salt in cell culture media [2] | Ka binding affinity with oligo-1 [3]
CCCN1CCN(c2ccc3[nH]c(-c4ccc5[nH]c(-c6cc(OC)c(OC)c(OC)c6)nc5c4)nc3c2)CC1 [11d, 5-(4-Propylpiperazin-1-yl)-2′-(3,4,5-trimethoxyphenyl)-1H,1′H-2,5′-bibenzo[d]imidazole] | 1 × 10^6 M^1 |  | 
CCCN1CCN(c2ccc3nc(-c4ccc5nc(-c6cc(OC)ccc6OC)[nH]c5c4)[nH]c3c2)CC1 [11c, 2′-(2,5-Dimethoxyphenyl)-6-(4-propylpiperazin-1-yl)-1H,3′H-2,5′-bibenzo[d]imidazole] | 3 × 10^6 M^1 |  | 7 × 10^6 M^–1
CCOc1ccc(-c2nc3cc(-c4nc5cc(N6CCN(C)CC6)ccc5[nH]4)ccc3[nH]2)cc1OCC [10a, 2-(2-(3,4-Diethoxyphenyl)-1H-benzo[d]imidazol-5-yl)-5-(4-methylpiperazin-1-yl)-1H-benzo[d]imidazole] | 2 × 10^6 M^1 |  | 7 × 10^6 M^–1
COc1ccc(OC)c(-c2nc3ccc(-c4nc5ccc(N6CCN(C)CC6)cc5[nH]4)cc3[nH]2)c1 [10c, 2′-(2,5-Dimethoxyphenyl)-6-(4-methylpiperazin-1-yl)-1H,3′H-2,5′-bibenzo[d]imidazole] | 2 × 10^6 M^1 |  | 8 × 10^6 M^–1
CN1CCN(c2ccc3[nH]c(-c4ccc5[nH]c(-c6ccc(C(F)(F)F)cc6)nc5c4)nc3c2)CC1 [10b, 5-(4-Methylpiperazin-1-yl)-2′-(4-(trifluoromethyl)phenyl)-1H,1′H-2,5′-Bibenzo[d]imidazole] | 3 × 10^6 M^1 |  | 7 × 10^6 M^–1
CCCN1CCN(c2ccc3[nH]c(-c4ccc5[nH]c(-c6ccc(C(F)(F)F)cc6)nc5c4)nc3c2)CC1 [11b, 2-(4-(Trifluoromethyl)phenyl)-5-(5-(4-propylpiperazin-1-yl)-1H-benzo[d]imidazol-2-yl)-1H-benzo[d]imidazole] | 2 × 10^6 M^1 |  | 7 × 10^6 M^–1
CCOc1ccc(-c2nc3ccc(-c4nc5ccc(N6CCN(C)CC6)cc5[nH]4)cc3[nH]2)cc1 [Hoechst 33342, reference compound] | 5 × 10^6 M^1 |  | 2 × 10^7 M^–1

Continued, values first:

Ka binding affinity with oligo-2 [1] | behaviour of HCl salt in cell culture media [2] | Ka binding affinity with oligo-1 [3] | SMILES
1 × 10^6 M^1 | precipitating in cell culture media | 5 × 10^6 M^–1 | COc1ccc(OC)c(-c2nc3ccc(-c4nc5ccc(N6CCN(CCN(C)C)CC6)cc5[nH]4)cc3[nH]2)c1 [13c, 2-(4-(2′-(2,5-Dimethoxyphenyl)-1H,3′H-[2,5′-bibenzo[d]imidazol]-6-yl)piperazin-1-yl)-N,N-dimethylethan-1-amine]
2 × 10^6 M^1 | precipitating in cell culture media | 9 × 10^6 M^–1 | CCOc1ccc(-c2nc3ccc(-c4nc5ccc(N6CCN(CCN(C)C)CC6)cc5[nH]4)cc3[nH]2)cc1OCC [13a, 2-(4-(2′-(3,4-Diethoxyphenyl)-1H,3′H-[2,5′-bibenzo[d]imidazol]-6-yl)piperazin-1-yl)N,N-dimethylethan-1-amine]
3 × 10^6 M^1 |  | 1 × 10^7 M^–1 | CCCCN1CCN(c2ccc3[nH]c(-c4ccc5[nH]c(-c6ccc(OCC)cc6)nc5c4)nc3c2)CC1 [12e, 5-(4-Butylpiperazin-1-yl)-2′-(4-ethoxyphenyl)-1H,1′H-2,5′-bibenzo[d]imidazole]
4 × 10^6 M^1 |  |  | CCCCN1CCN(c2ccc3[nH]c(-c4ccc5[nH]c(-c6cc(OC)c(OC)c(OC)c6)nc5c4)nc3c2)CC1 [12d, 5-(4-Butylpiperazin-1-yl)-2-(2-(3,4,5-trimethoxyphenyl)-1H-benzo[d]imidazol-5-yl)-1H-benzo[d]imidazole]
2 × 10^6 M^1 |  |  | CCCCN1CCN(c2ccc3nc(-c4ccc5nc(-c6cc(OC)ccc6OC)[nH]c5c4)[nH]c3c2)CC1 [12c, 6-(4-Butylpiperazin-1-yl)-2′-(2,5-dimethoxyphenyl)-1H,3′H-2,5′-bibenzo[d]imidazole]
1 × 10^6 M^1 | precipitating in cell culture media | 5 × 10^6 M^–1 | COc1cc(-c2nc3ccc(-c4nc5ccc(N6CCN(CCN(C)C)CC6)cc5[nH]4)cc3[nH]2)cc(OC)c1OC [13d, 2-(4-(2′-(3,4,5-Trimethoxyphenyl)-1H,3′H-[2,5′-bibenzo[d]imidazol]-6-yl)piperazin-1-yl) N,N-Dimethylethan-1-amine]
